Activity calls are given as the source filed them. The calls are words filed in the database; no cut-off is given here.
Tests used:
Format in all cases: functional, organism-based
Settings in all cases: Trachea
Pseudomonas aeruginosa [1] = experiment: Antimicrobial activity against Pseudomonas aeruginosa 65.18-4 tracheal isolates from mechanically ventilated tuberculosis patient
Pseudomonas aeruginosa [2] = experiment: Antimicrobial activity against Pseudomonas aeruginosa 2F6 tracheal isolates from mechanically ventilated tuberculosis patient
Pseudomonas aeruginosa [3] = experiment: Antimicrobial activity against Pseudomonas aeruginosa 9B2 tracheal isolates from mechanically ventilated chronic respiratory insufficiency patient
Pseudomonas aeruginosa [4] = experiment: Antimicrobial activity against Pseudomonas aeruginosa 1A9 tracheal isolates from mechanically ventilated tuberculosis patient
Pseudomonas aeruginosa [5] = experiment: Antimicrobial activity against Pseudomonas aeruginosa 65.36-1 tracheal isolates from mechanically ventilated tuberculosis patient
Pseudomonas aeruginosa [6] = experiment: Antimicrobial activity against Pseudomonas aeruginosa 10A6 tracheal isolates from mechanically ventilated chronic respiratory insufficiency patient
Pseudomonas aeruginosa [7] = experiment: Antimicrobial activity against Pseudomonas aeruginosa 65.38-1 tracheal isolates from mechanically ventilated tuberculosis patient
Pseudomonas aeruginosa [8] = experiment: Antimicrobial activity against Pseudomonas aeruginosa 2A5 tracheal isolates from mechanically ventilated tuberculosis patient
Pseudomonas aeruginosa [9] = experiment: Antimicrobial activity against Pseudomonas aeruginosa 3D1 tracheal isolates from mechanically ventilated chronic respiratory insufficiency patient
Pseudomonas aeruginosa [10] = experiment: Antimicrobial activity against Pseudomonas aeruginosa 9A10 tracheal isolates from mechanically ventilated chronic respiratory insufficiency patient
Pseudomonas aeruginosa [11] = experiment: Antimicrobial activity against Pseudomonas aeruginosa 10B3 tracheal isolates from mechanically ventilated chronic respiratory insufficiency patient
Pseudomonas aeruginosa [12] = experiment: Antimicrobial activity against Pseudomonas aeruginosa 16D5 tracheal isolates from mechanically ventilated chronic respiratory insufficiency patient
Pseudomonas aeruginosa [13] = experiment: Antimicrobial activity against Pseudomonas aeruginosa 19D9 tracheal isolates from mechanically ventilated chronic respiratory insufficiency patient
Pseudomonas aeruginosa [14] = experiment: Antimicrobial activity against Pseudomonas aeruginosa 15G2 tracheal isolates from mechanically ventilated chronic respiratory insufficiency patient
Pseudomonas aeruginosa [15] = experiment: Antimicrobial activity against Pseudomonas aeruginosa 19E2 tracheal isolates from mechanically ventilated chronic respiratory insufficiency patient
Pseudomonas aeruginosa [16] = experiment: Antimicrobial activity against Pseudomonas aeruginosa 3D10 tracheal isolates from mechanically ventilated chronic respiratory insufficiency patient
Pseudomonas aeruginosa [17] = experiment: Antimicrobial activity against Pseudomonas aeruginosa 22C5 tracheal isolates from mechanically ventilated chronic respiratory insufficiency patient
Pseudomonas aeruginosa [18] = experiment: Antimicrobial activity against Pseudomonas aeruginosa 65.38-3 tracheal isolates from mechanically ventilated tuberculosis patient
Pseudomonas aeruginosa [19] = experiment: Antimicrobial activity against Pseudomonas aeruginosa 65.68-1 tracheal isolates from mechanically ventilated tuberculosis patient
Pseudomonas aeruginosa [20] = experiment: Antimicrobial activity against Pseudomonas aeruginosa 65.68-3 tracheal isolates from mechanically ventilated tuberculosis patient
Pseudomonas aeruginosa [21] = experiment: Antimicrobial activity against Pseudomonas aeruginosa 12A7 tracheal isolates from mechanically ventilated chronic respiratory insufficiency patient
Pseudomonas aeruginosa [22] = experiment: Antimicrobial activity against Pseudomonas aeruginosa 9A1 tracheal isolates from mechanically ventilated chronic respiratory insufficiency patient
Pseudomonas aeruginosa [23] = experiment: Antimicrobial activity against Pseudomonas aeruginosa 24G1 tracheal isolates from mechanically ventilated chronic respiratory insufficiency patient
Pseudomonas aeruginosa [24] = experiment: Antimicrobial activity against Pseudomonas aeruginosa 2A5 tracheal isolates from mechanically ventilated chronic respiratory insufficiency patient
Pseudomonas aeruginosa [25] = experiment: Antimicrobial activity against Pseudomonas aeruginosa P21.23 tracheal isolates from mechanically ventilated tuberculosis patient
Pseudomonas aeruginosa [26] = experiment: Antimicrobial activity against Pseudomonas aeruginosa 22E1 tracheal isolates from mechanically ventilated chronic respiratory insufficiency patient
Pseudomonas aeruginosa [27] = experiment: Antimicrobial activity against Pseudomonas aeruginosa 2C2 tracheal isolates from mechanically ventilated tuberculosis patient
Pseudomonas aeruginosa [28] = experiment: Antimicrobial activity against Pseudomonas aeruginosa 9A3 tracheal isolates from mechanically ventilated chronic respiratory insufficiency patient
Pseudomonas aeruginosa [29] = experiment: Antimicrobial activity against Pseudomonas aeruginosa 19B6 tracheal isolates from mechanically ventilated chronic respiratory insufficiency patient
Pseudomonas aeruginosa [30] = experiment: Antimicrobial activity against Pseudomonas aeruginosa 65.33-2 tracheal isolates from mechanically ventilated tuberculosis patient
Pseudomonas aeruginosa [31] = experiment: Antimicrobial activity against Pseudomonas aeruginosa 2A6 tracheal isolates from mechanically ventilated tuberculosis patient
Pseudomonas aeruginosa [32] = experiment: Antimicrobial activity against Pseudomonas aeruginosa 1B9 tracheal isolates from mechanically ventilated tuberculosis patient
Pseudomonas aeruginosa [33] = experiment: Antimicrobial activity against Pseudomonas aeruginosa 8B11 tracheal isolates from mechanically ventilated chronic respiratory insufficiency patient
Pseudomonas aeruginosa [34] = experiment: Antimicrobial activity against Pseudomonas aeruginosa 2A7 tracheal isolates from mechanically ventilated tuberculosis patient
Pseudomonas aeruginosa [35] = experiment: Antimicrobial activity against Pseudomonas aeruginosa 9B5 tracheal isolates from mechanically ventilated chronic respiratory insufficiency patient
Pseudomonas aeruginosa [36] = experiment: Antimicrobial activity against Pseudomonas aeruginosa 2A9 tracheal isolates from mechanically ventilated tuberculosis patient
Pseudomonas aeruginosa [37] = experiment: Antimicrobial activity against Pseudomonas aeruginosa 5F8 tracheal isolates from mechanically ventilated chronic respiratory insufficiency patient
Pseudomonas aeruginosa [38] = experiment: Antimicrobial activity against Pseudomonas aeruginosa 2A2 tracheal isolates from mechanically ventilated tuberculosis patient
Pseudomonas aeruginosa [39] = experiment: Antimicrobial activity against Pseudomonas aeruginosa 29F6 tracheal isolates from mechanically ventilated chronic respiratory insufficiency patient
Pseudomonas aeruginosa [40] = experiment: Antimicrobial activity against Pseudomonas aeruginosa 3B1 tracheal isolates from mechanically ventilated tuberculosis patient
Pseudomonas aeruginosa [41] = experiment: Antimicrobial activity against Pseudomonas aeruginosa 19E9 tracheal isolates from mechanically ventilated chronic respiratory insufficiency patient
Pseudomonas aeruginosa [42] = experiment: Antimicrobial activity against Pseudomonas aeruginosa 10B1 tracheal isolates from mechanically ventilated chronic respiratory insufficiency patient
Pseudomonas aeruginosa [43] = experiment: Antimicrobial activity against Pseudomonas aeruginosa 12A3 tracheal isolates from mechanically ventilated chronic respiratory insufficiency patient
Pseudomonas aeruginosa [44] = experiment: Antimicrobial activity against Pseudomonas aeruginosa 10A9 tracheal isolates from mechanically ventilated chronic respiratory insufficiency patient
Pseudomonas aeruginosa [45] = experiment: Antimicrobial activity against Pseudomonas aeruginosa P21.21 tracheal isolates from mechanically ventilated tuberculosis patient
Pseudomonas aeruginosa [46] = experiment: Antimicrobial activity against Pseudomonas aeruginosa 8A12 tracheal isolates from mechanically ventilated chronic respiratory insufficiency patient
Pseudomonas aeruginosa [47] = experiment: Antimicrobial activity against Pseudomonas aeruginosa 15H5 tracheal isolates from mechanically ventilated chronic respiratory insufficiency patient
Pseudomonas aeruginosa [48] = experiment: Antimicrobial activity against Pseudomonas aeruginosa 13E1 tracheal isolates from mechanically ventilated chronic respiratory insufficiency patient
Pseudomonas aeruginosa [49] = experiment: Antimicrobial activity against Pseudomonas aeruginosa 24E5 tracheal isolates from mechanically ventilated chronic respiratory insufficiency patient
Pseudomonas aeruginosa [50] = experiment: Antimicrobial activity against Pseudomonas aeruginosa 29G6 tracheal isolates from mechanically ventilated chronic respiratory insufficiency patient
Pseudomonas aeruginosa [51] = experiment: Antimicrobial activity against Pseudomonas aeruginosa 5G3 tracheal isolates from mechanically ventilated chronic respiratory insufficiency patient
Pseudomonas aeruginosa [52] = experiment: Antimicrobial activity against Pseudomonas aeruginosa 65.33-1 tracheal isolates from mechanically ventilated tuberculosis patient
Pseudomonas aeruginosa [53] = experiment: Antimicrobial activity against Pseudomonas aeruginosa 5H6 tracheal isolates from mechanically ventilated chronic respiratory insufficiency patient
Pseudomonas aeruginosa [54] = experiment: Antimicrobial activity against Pseudomonas aeruginosa 65.68-2 tracheal isolates from mechanically ventilated tuberculosis patient
Pseudomonas aeruginosa [55] = experiment: Antimicrobial activity against Pseudomonas aeruginosa 29G7 tracheal isolates from mechanically ventilated chronic respiratory insufficiency patient
Pseudomonas aeruginosa [56] = experiment: Antimicrobial activity against Pseudomonas aeruginosa 2C1 tracheal isolates from mechanically ventilated tuberculosis patient
Pseudomonas aeruginosa [57] = experiment: Antimicrobial activity against Pseudomonas aeruginosa 12B2 tracheal isolates from mechanically ventilated chronic respiratory insufficiency patient
Pseudomonas aeruginosa [58] = experiment: Antimicrobial activity against Pseudomonas aeruginosa 65.33-4 tracheal isolates from mechanically ventilated tuberculosis patient
Pseudomonas aeruginosa [59] = experiment: Antimicrobial activity against Pseudomonas aeruginosa 29G8 tracheal isolates from mechanically ventilated chronic respiratory insufficiency patient

## C[C@@H](O)[C@H]1C(=O)N2C(C(=O)O)=C(SCCNC=N)C[C@H]12
Pseudomonas aeruginosa [1]
  Activity: inactive
Pseudomonas aeruginosa [2]
  Activity: inactive
Pseudomonas aeruginosa [3]
  Activity: Active
Pseudomonas aeruginosa [4]
  Activity: inactive
Pseudomonas aeruginosa [5]
  Activity: inactive
Pseudomonas aeruginosa [6]
  Activity: Active
Pseudomonas aeruginosa [7]
  Activity: inactive
Pseudomonas aeruginosa [8]
  Activity: Active
Pseudomonas aeruginosa [9]
  Activity: Active
Pseudomonas aeruginosa [10]
  Activity: Active
Pseudomonas aeruginosa [11]
  Activity: Active
Pseudomonas aeruginosa [12]
  Activity: Active
Pseudomonas aeruginosa [13]
  Activity: Active
Pseudomonas aeruginosa [14]
  Activity: Active
Pseudomonas aeruginosa [15]
  Activity: Active
Pseudomonas aeruginosa [16]
  Activity: Active
Pseudomonas aeruginosa [17]
  Activity: Active
Pseudomonas aeruginosa [18]
  Activity: inactive
Pseudomonas aeruginosa [19]
  Activity: inactive
Pseudomonas aeruginosa [20]
  Activity: inactive
Pseudomonas aeruginosa [21]
  Activity: Active
Pseudomonas aeruginosa [22]
  Activity: Active
Pseudomonas aeruginosa [23]
  Activity: Active
Pseudomonas aeruginosa [24]
  Activity: Active
Pseudomonas aeruginosa [25]
  Activity: Active
Pseudomonas aeruginosa [26]
  Activity: Active
Pseudomonas aeruginosa [27]
  Activity: inactive
Pseudomonas aeruginosa [28]
  Activity: Active
Pseudomonas aeruginosa [29]
  Activity: Active
Pseudomonas aeruginosa [30]
  Activity: inactive
Pseudomonas aeruginosa [31]
  Activity: inactive
Pseudomonas aeruginosa [32]
  Activity: inactive
Pseudomonas aeruginosa [33]
  Activity: Active
Pseudomonas aeruginosa [34]
  Activity: inactive
Pseudomonas aeruginosa [35]
  Activity: Active
Pseudomonas aeruginosa [36]
  Activity: inactive
Pseudomonas aeruginosa [37]
  Activity: Active
Pseudomonas aeruginosa [38]
  Activity: inactive
Pseudomonas aeruginosa [39]
  Activity: Active
Pseudomonas aeruginosa [40]
  Activity: inactive
Pseudomonas aeruginosa [41]
  Activity: Active
Pseudomonas aeruginosa [42]
  Activity: Active
Pseudomonas aeruginosa [43]
  Activity: Active
Pseudomonas aeruginosa [44]
  Activity: Active
Pseudomonas aeruginosa [45]
  Activity: Active
Pseudomonas aeruginosa [46]
  Activity: Active
Pseudomonas aeruginosa [47]
  Activity: Active
Pseudomonas aeruginosa [48]
  Activity: Active
Pseudomonas aeruginosa [49]
  Activity: Active
Pseudomonas aeruginosa [50]
  Activity: Active
Pseudomonas aeruginosa [51]
  Activity: Active
Pseudomonas aeruginosa [52]
  Activity: inactive
Pseudomonas aeruginosa [53]
  Activity: Active
Pseudomonas aeruginosa [54]
  Activity: inactive
Pseudomonas aeruginosa [55]
  Activity: Active
Pseudomonas aeruginosa [56]
  Activity: inactive
Pseudomonas aeruginosa [57]
  Activity: Active
Pseudomonas aeruginosa [58]
  Activity: inactive

## O=C(O)c1cn(C2CC2)c2cc(N3CCNCC3)c(F)cc2c1=O
Pseudomonas aeruginosa [1]
  Activity: Active
Pseudomonas aeruginosa [2]
  Activity: Active
Pseudomonas aeruginosa [3]
  Activity: Active
Pseudomonas aeruginosa [4]
  Activity: Active
Pseudomonas aeruginosa [5]
  Activity: Active
Pseudomonas aeruginosa [6]
  Activity: Active
Pseudomonas aeruginosa [7]
  Activity: Active
Pseudomonas aeruginosa [8]
  Activity: Active
Pseudomonas aeruginosa [9]
  Activity: Active
Pseudomonas aeruginosa [10]
  Activity: Active
Pseudomonas aeruginosa [11]
  Activity: Active
Pseudomonas aeruginosa [12]
  Activity: Active
Pseudomonas aeruginosa [13]
  Activity: inactive
Pseudomonas aeruginosa [14]
  Activity: inactive
Pseudomonas aeruginosa [15]
  Activity: Active
Pseudomonas aeruginosa [16]
  Activity: Active
Pseudomonas aeruginosa [17]
  Activity: Active
Pseudomonas aeruginosa [18]
  Activity: Active
Pseudomonas aeruginosa [19]
  Activity: Active
Pseudomonas aeruginosa [20]
  Activity: Active
Pseudomonas aeruginosa [21]
  Activity: Active
Pseudomonas aeruginosa [22]
  Activity: Active
Pseudomonas aeruginosa [24]
  Activity: Active
Pseudomonas aeruginosa [25]
  Activity: Active
Pseudomonas aeruginosa [26]
  Activity: Active
Pseudomonas aeruginosa [27]
  Activity: Active
Pseudomonas aeruginosa [28]
  Activity: Active
Pseudomonas aeruginosa [29]
  Activity: Active
Pseudomonas aeruginosa [30]
  Activity: Active
Pseudomonas aeruginosa [31]
  Activity: Active
Pseudomonas aeruginosa [32]
  Activity: Active
Pseudomonas aeruginosa [33]
  Activity: Active
Pseudomonas aeruginosa [34]
  Activity: Active
Pseudomonas aeruginosa [35]
  Activity: Active
Pseudomonas aeruginosa [59]
  Activity: Active
Pseudomonas aeruginosa [36]
  Activity: Active
Pseudomonas aeruginosa [37]
  Activity: Active
Pseudomonas aeruginosa [38]
  Activity: Active
Pseudomonas aeruginosa [39]
  Activity: Active
Pseudomonas aeruginosa [40]
  Activity: Active
Pseudomonas aeruginosa [41]
  Activity: Active
Pseudomonas aeruginosa [42]
  Activity: Active
Pseudomonas aeruginosa [43]
  Activity: Active
Pseudomonas aeruginosa [44]
  Activity: Active
Pseudomonas aeruginosa [45]
  Activity: Active
Pseudomonas aeruginosa [46]
  Activity: Active
Pseudomonas aeruginosa [47]
  Activity: Active
Pseudomonas aeruginosa [48]
  Activity: Active
Pseudomonas aeruginosa [49]
  Activity: Active
Pseudomonas aeruginosa [50]
  Activity: Active
Pseudomonas aeruginosa [51]
  Activity: Active
Pseudomonas aeruginosa [52]
  Activity: Active
Pseudomonas aeruginosa [53]
  Activity: Active
Pseudomonas aeruginosa [54]
  Activity: Active
Pseudomonas aeruginosa [55]
  Activity: Active
Pseudomonas aeruginosa [56]
  Activity: Active
Pseudomonas aeruginosa [57]
  Activity: Active
Pseudomonas aeruginosa [58]
  Activity: Active

— ChEMBL document CHEMBL1147101, “Development and persistence of antimicrobial resistance in Pseudomonas aeruginosa: a longitudinal observation in mechanically ventilated patients” (Antimicrob Agents Chemother, 2007)
